Measurements taken from US20100144779A1, “Marine Alkalod Makaluvamines and Derivatives Thereof” (THE UAB RESEARCH FOUNDATION, priority 2007, published 2010).
pIC50: −log10 of the molar value. Read-outs that look alike come from different tables or passages of the source.

Key:
[1] = tested on: U87MG; assay: MTT growth inhibition assay; assay type: cell-based, human; conditions: cancer cell, 72 hr, read-out: Growth inhibitory activity (IC50)
[2] = tested on: p21; assay: Protein expression, Western blot in MCF-7 cells; assay type: cell-based, human; conditions: 1 μM, 6 h (FIG. 4A)
Method: (§1) In FIG. 4A, MCF-7 cells were exposed to 1 μM concentration of the indicated compounds for 6 hours. Western blots were probed with antibodies specific for the proteins indicated. Numbers below each lane show densitometry readings for each lane as compared to control. […] Western blots were probed with antibodies specific for the proteins indicated.
(§2) To determine the disclosed compounds effect on protein expression in human breast cancer cells, cultured MCF-7 cells were exposed to various concentrations of the test compounds for 6 h (FIG. 4A) or 24 h (FIG. 4B). Cell lysates were fractionated with identical amounts of protein by SDS-PAGE and transferred to Bio-Rad trans-Blot nitrocellulose membranes (Bio-Rad Laboratories, Hercules, Calif.). The nitrocellulose membrane was incubated in blocking buffer (Tris-buffered saline containing 0.1% Tween 20 and 5% nonfat milk) for 1 h at room temperature, then with the appropriate primary antibody overnight at 4° C. or 2 h at room temperature with gentle shaking. Finally, the membrane was washed three times with the washing buffer (Tris-buffered saline containing 0.1% Tween 20) for 15 min, incubated with goat anti mouse/rabbit IgG-horseradish peroxidase-conjugated antibody (Bio-Rad) for 1 h at room temperature, and washed again (in triplicate). The protein of interest was detected by enhanced chemiluminescence reagents from PerkinElmer LAS, Inc (Boston, Mass.).

[3] = tested on: p53; assay: Protein expression, Western blot in MCF-7 cells; assay type: cell-based, human; conditions: 1 μM, 6 h (FIG. 4A)
Method: as §1, §2

[4] = tested on: MDM2; assay: Protein expression, Western blot in MCF-7 cells; assay type: cell-based, human; conditions: for expression of MDM2: 1 μM, 6 h (FIG. 4A)
Method: as §1, §2

[5] = tested on: H1299; assay: Cell cycle progression (propidium iodide, flow cytometry); assay type: cell-based, human; conditions: 48 hr; for G1 / G2/M / S: H1299; for cell cycle arrest: lung cancer H1299, dose-dependent
Method: (§3) To determination of the effects of the disclosed compounds on the cell cycle, 2-3×10^5 cells were exposed to the test compounds (0-5 μM) and incubated for 48 hr prior to analysis (Table 6). Cells were trypsinized, washed with PBS and fixed in 1.5 mL 95% ethanol at 4° C. overnight, followed by incubation with RNAse and staining with propidium iodide (Sigma). The DNA content was determined by flow cytometry.

[6] = tested on: A549; assay: as above; assay type: cell-based, human; conditions: 48 hr; for G1 / G2/M / S: A549; for cell cycle arrest: lung cancer A549, dose-dependent
Method: as §3

[7] = tested on: different cancer cell lines; assay: Induction of apoptosis (annexin V-FITC); assay type: cell-based, human; conditions: annexin V-FITC/PI; 0.1-25 μM, 48 hr; effect in the 1-10 μM range
Method: Cells in early and late stages of apoptosis were detected with an annexin V-FITC apoptosis detection kit from BioVision (Mountain View, Calif.). In brief, cells were exposed to the test compounds (0, 0.1, 1, 10, 25 μM) and incubated for 48 hr prior to analysis. Media and cells were collected and washed with serum-free media. Cells were then re-suspended in 500 μL of Annexin V binding buffer followed by addition of 5 μL Annexin VFITC and 5 μL of propidium iodide (PI). The samples were incubated in the dark for 5 min at room temperature prior to analysis. […] Cells that were positive for Annexin V-FITC alone (early apoptosis) and Annexin V-FITC and PI (late apoptosis) were counted.

[8] = tested on: cleaved PARP; assay: Protein expression, Western blot in MCF-7 cells; assay type: cell-based, human; conditions: 24 h (FIG. 4B)
Method: (§4) In FIG. 4A, MCF-7 cells were exposed to 1 μM concentration of the indicated compounds for 6 hours. Western blots were probed with antibodies specific for the proteins indicated. Numbers below each lane show densitometry readings for each lane as compared to control. In FIG. 4B, MCF-7 cells were exposed to the indicated concentration of compound 28 and incubated for 24 hours. Western blots were probed with antibodies specific for the proteins indicated.
as §2

[9] = tested on: cdc25c; assay: Protein expression, Western blot in MCF-7 cells; assay type: cell-based, human; conditions: 24 h (FIG. 4B)
Method: as §4, §2

[10] = tested on: E2F1; assay: Protein expression, Western blot in MCF-7 cells; assay type: cell-based, human; conditions: 24 h (FIG. 4B)
Method: as §4, §2

[11] = tested on: cdc2; assay: Protein expression, Western blot in MCF-7 cells; assay type: cell-based, human; conditions: 24 h (FIG. 4B)
Method: as §4, §2

[12] = tested on: MCF7; assay: Cell cycle progression (propidium iodide, flow cytometry); assay type: cell-based, human; conditions: 48 hr; for G1 / G2/M / S: MCF7
Method: as §3

[13] = tested on: HCT116; assay: as above; assay type: cell-based, human; conditions: 48 hr; for G1 / G2/M / S: HCT116
Method: as §3

[14] = tested on: female, athymic nude mice; conditions: 8, 20 or 40 mg/kg intra-peritoneally, 1 time per week for 3 weeks
Method: To evaluate the potential toxicity of the makaluvamine compounds disclosed, compound 4c was identified for testing in a mouse model. […] Four groups of 5 female, athymic nude mice (Federick Cancer Research, Rockville, Md.) were injected intra-peritoneally, at doses of 8, 20 or 40 mg/kg of compounds 4c (treatment group) or vehicle only (control group). […] Compound 4c was injected at its respective dose in a 200 μl volume of saline:DMSO (100 μl:100 μl). The vehicle only group was injected with 200 μl saline:DMSO. Injections were given 1 time per week for 3 weeks. […] Mice in each groups were evaluated for survival and weight gain/loss during the treatment period.

## COc1ccc(CCNC2=CC3=NCCc4c[nH]c(c43)C2=O)cc1OC.O=C(O)C(F)(F)F [Compound 20]
[1]; Homo sapiens, U-87 MG
  pIC50: 5.52
[2]
  expression of p21: decreased the expression
[3]
  expression of p53: decreased the expression
[4]
  expression of MDM2: inhibited the expression

## O=C1C(NCCc2ccccc2)=CC2=NCCc3c[nH]c1c32 [Compound 4d]
[1]
  pIC50: 5.37
[2]
  expression of p21: increased the expression
[3]
  expression of p53: increased the expression
[4]
  expression of MDM2: increased the expression

## O=C(O)C(F)(F)F.O=C1C(NCCc2ccc3c(c2)OCO3)=CC2=NCCc3c[nH]c1c32 [Compound 6]
[1]; Homo sapiens, U-87 MG
  pIC50: 5.25
[3]
  expression of p53: increased the expression
[5]; 0.1 μM
  G1: 53.99
  G2/M: 30.73
  S: 15.28
[5]; 1 μM
  G1: 57.20
  G2/M: 27.57
  S: 15.22
[5]; 5 μM
  G1: 35.29
  G2/M: 41.28
  S: 23.43
[5]
  cell cycle arrest: cell cycle arrest in the G2/M phase
[6]; 0.1 μM
  G1: 58.66
  G2/M: 20.85
  S: 20.50
[6]; 1 μM
  G1: 58.59
  G2/M: 20.37
  S: 21.04
[6]; 5 μM
  G1: 50.88
  G2/M: 23.36
  S: 25.76
[6]
  cell cycle arrest: cell cycle arrest in the G2/M phase

## O=C(O)C(F)(F)F.O=C1C(NCc2ccc(F)cc2)=CC2=NCCc3c[nH]c1c32 [Compound 28]
[1]; Homo sapiens, U-87 MG
  pIC50: 5.77
[2]
  expression of p21: decreased the expression
[3]
  expression of p53: decreased the expression
[4]
  expression of MDM2: inhibited the expression
[4]; 24 h (FIG. 4B)
  expression level of MDM2: decreased
[7]
  induction of apoptosis: significant induction of apoptosis
[8]
  expression of cleaved PARP: increased expression
[9]
  expression level of cdc25c: decreased
[10]
  expression level of E2F1: decreased
[11]
  expression level of cdc2: decreased
[12]; 0.1 μM
  G1: 75.10
  G2/M: 17.53
  S: 7.37
[12]; 0.5 μM
  G1: 51.97
  G2/M: 20.17
  S: 27.86
[12]; 1 μM
  G1: 53.96
  G2/M: 16.21
  S: 29.82
[12]; breast cancer (MCF-7), dose-dependent, 0-5 μM
  cell cycle arrest: cell cycle arrest in the S phase
[5]; 0.1 μM
  G1: 54.23
  G2/M: 25.17
  S: 20.60
[5]; 1 μM
  G1: 46.88
  G2/M: 31.82
  S: 21.31
[5]; 2 μM
  G1: 31.52
  G2/M: 36.36
  S: 32.11
[5]
  cell cycle arrest: cell cycle arrest in the S phase
[13]; 0.5 μM
  G1: 31.82
  G2/M: 45.04
  S: 23.14
[13]; 1 μM
  G1: 28.40
  G2/M: 38.17
  S: 33.43
[13]; colon cancer HCT116, dose-dependent
  cell cycle arrest: cell cycle arrest in the S and G2/M phase
[6]; 0.1 μM
  G1: 59.91
  G2/M: 20.22
  S: 19.87
[6]; 1 μM
  G1: 57.88
  G2/M: 20.14
  S: 21.98
[6]; 5 μM
  G1: 46.78
  G2/M: 25.07
  S: 28.14
[6]
  cell cycle arrest: cell cycle arrest in the S phase

## O=C1C(NCc2ccccc2)=CC2=NCCc3c[nH]c1c32 [Compound 4c]
[1]
  pIC50: 5.54
[2]
  expression of p21: decreased the expression
[3]
  expression of p53: increased the expression
[4]
  expression of MDM2: inhibited the expression
[14]
  weight changes between treatment groups: No significant weight changes
  weight gain/loss during the treatment period: all mice gained weight
[14]; observed 21 days
  survival: 100%
[7]
  induction of apoptosis: significant induction of apoptosis
[5]; 0.1 μM
  G1: 55.27
  G2/M: 26.89
  S: 17.84
[5]; 1 μM
  G1: 51.18
  G2/M: 29.35
  S: 19.47
[5]; 2 μM
  G1: 30.46
  G2/M: 49.58
  S: 19.96
[5]
  cell cycle arrest: cell cycle arrest in the G2/M phase
[6]; 0.1 μM
  G1: 60.23
  G2/M: 19.41
  S: 20.37
[6]; 1 μM
  G1: 58.62
  G2/M: 19.85
  S: 21.53
[6]; 5 μM
  G1: 47.18
  G2/M: 30.35
  S: 22.48
[6]
  cell cycle arrest: cell cycle arrest in the G2/M phase
